Results reported in patent publication US6689806B1, “Indolinone compounds as kinase inhibitors” (Sugen, Inc., priority 1999, dated 2004).
pIC50: −log10 of the molar value.

Assays:
[1] = target: T1, EGFR (Homo sapiens, UniProt P00533); assay: EGF-induced BrdU incorporation assay; assay type: cell-based; parameters: expressed in transfected cells; host or cells: 3T3; conditions: Table 6; 3T3 cells expressing human EGF-R, EGF 2 nM; read-out: EGF-Driven BrdU Incorp. IC50
Description: (§1) The cellular/biologic assays described herein measure the amount of DNA made in response to activation of a test kinase, which is a general measure of a proliferative response. The general procedure for this assay is as follows: a compound is introduced to cells expressing the test kinase, either naturally or recombinantly, for some period of time after which, if the test kinase is a receptor, a ligand known to activate the receptor is added. After incubation at least overnight, a DNA labeling reagent such as Bromodeoxy-uridine (BrdU) or 3H-thymidine is added. The amount of labeled DNA is detected with either an anti-BrdU antibody or by measuring radioactivity and is compared to control cells not contacted with a test compound.
EGF-Induced BrdU Incorporation Assay
(8) 3T3 cell line genetically engineered to express human EGF-R.
(1) Cells are seeded at 8000 cells/well in 10% CS, 2 mM Gin in DMEM, in a 96 well plate. Cells are incubated overnight at 37° C. in 5% CO2.
(§2) (2) After 24 hours, the cells are washed with PBS, and then are serum starved in serum free medium (0% CS DMEM with 0.1% BSA) for 24 hours.
(§3) (3) On day 3, ligand (EGF, 2 nM, prepared in DMEM with 0.1%/BSA) and test compounds are added to the cells simultaneously. The negative control wells receive serum free DMEM with 0.1% BSA only; the positive control cells receive the ligand (EGF) but no test compound. Test compounds are prepared in serum free DMEM with ligand in a 96 well plate, and serially diluted for 7 test concentrations.
(§4) (4) After 20 hours of ligand activation, diluted BrdU labeling reagent (1: 100 in DMEM, 0.1% BSA) is added and the cells are incubated with BrdU (final concentration=10 μM) for 1.5 hours.
(§5) (10) The absorbance of the samples are measured at 410 nm (in “dual wavelength” mode with a filter reading at 490 nm, as a reference wavelength) on a Dynatech ELISA plate reader.

[2] = target: T2, Her2 (Homo sapiens, UniProt P04626); assay: EGF-induced Her2-driven BrdU incorporation; assay type: cell-based; conditions: Table 6; 3T3 cells with EGF-R/Her2 chimeric receptor, EGF 2 nM; read-out: Her2-Driven BrdU Incorp. IC50
T2 construct: fused on or other part: P00533 (Epidermal growth factor receptor)
T2 sequence (P04626 676-1255 limits assumed): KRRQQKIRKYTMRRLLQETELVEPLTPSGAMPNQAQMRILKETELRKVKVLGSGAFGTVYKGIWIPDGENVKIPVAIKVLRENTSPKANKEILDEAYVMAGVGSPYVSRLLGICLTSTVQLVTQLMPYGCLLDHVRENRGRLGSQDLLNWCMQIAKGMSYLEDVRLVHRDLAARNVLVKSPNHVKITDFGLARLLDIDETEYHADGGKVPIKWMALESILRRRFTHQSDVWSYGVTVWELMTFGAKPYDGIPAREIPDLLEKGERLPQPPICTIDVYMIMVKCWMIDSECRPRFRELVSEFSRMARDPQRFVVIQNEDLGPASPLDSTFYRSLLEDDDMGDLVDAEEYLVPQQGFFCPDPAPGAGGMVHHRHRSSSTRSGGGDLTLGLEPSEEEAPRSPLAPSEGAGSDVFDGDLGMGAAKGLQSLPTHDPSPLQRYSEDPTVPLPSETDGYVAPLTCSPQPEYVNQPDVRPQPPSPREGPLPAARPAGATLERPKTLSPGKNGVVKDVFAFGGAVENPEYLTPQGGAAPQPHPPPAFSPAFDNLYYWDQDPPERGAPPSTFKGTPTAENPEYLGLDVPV
Description: as §1
EGF-Induced Her2-Driven BrdU Incorporation
(8) 3T3 cell line engineered to express a chimeric receptor having the extra-cellular domain of EGF-R and the intra-cellular domain of Her2.
(1) Cells are seeded at 8000 cells/well in DMEM, 10% CS, 2 mM Gln in a 96-well plate. Cells are incubated overnight at 37° C. in 5% CO2.
as §2
as §3, with “(EGF=2” for “(EGF, 2”, “0.1% BSA)” for “0.1%/BSA)”
(4) After 20 hours of ligand activation, diluted BrdU labeling reagent (1:100 in DMEM, 0.1% BSA) is added and the cells are incubated with BrdU (final concentration=[…]) for 1.5 hours.
as §5

[3] = target: PDGFR (Homo sapiens, UniProt P09619); assay: PDGF-induced BrdU incorporation assay; assay type: cell-based; parameters: expressed in transfected cells; host or cells: 3T3; conditions: Table 6; 3T3 cells expressing human PDGF-R, PDGF 3.8 nM; read-out: PDGF-Driven BrdU Incorp. IC50
Chain of PDGFR (P09619 33-1106): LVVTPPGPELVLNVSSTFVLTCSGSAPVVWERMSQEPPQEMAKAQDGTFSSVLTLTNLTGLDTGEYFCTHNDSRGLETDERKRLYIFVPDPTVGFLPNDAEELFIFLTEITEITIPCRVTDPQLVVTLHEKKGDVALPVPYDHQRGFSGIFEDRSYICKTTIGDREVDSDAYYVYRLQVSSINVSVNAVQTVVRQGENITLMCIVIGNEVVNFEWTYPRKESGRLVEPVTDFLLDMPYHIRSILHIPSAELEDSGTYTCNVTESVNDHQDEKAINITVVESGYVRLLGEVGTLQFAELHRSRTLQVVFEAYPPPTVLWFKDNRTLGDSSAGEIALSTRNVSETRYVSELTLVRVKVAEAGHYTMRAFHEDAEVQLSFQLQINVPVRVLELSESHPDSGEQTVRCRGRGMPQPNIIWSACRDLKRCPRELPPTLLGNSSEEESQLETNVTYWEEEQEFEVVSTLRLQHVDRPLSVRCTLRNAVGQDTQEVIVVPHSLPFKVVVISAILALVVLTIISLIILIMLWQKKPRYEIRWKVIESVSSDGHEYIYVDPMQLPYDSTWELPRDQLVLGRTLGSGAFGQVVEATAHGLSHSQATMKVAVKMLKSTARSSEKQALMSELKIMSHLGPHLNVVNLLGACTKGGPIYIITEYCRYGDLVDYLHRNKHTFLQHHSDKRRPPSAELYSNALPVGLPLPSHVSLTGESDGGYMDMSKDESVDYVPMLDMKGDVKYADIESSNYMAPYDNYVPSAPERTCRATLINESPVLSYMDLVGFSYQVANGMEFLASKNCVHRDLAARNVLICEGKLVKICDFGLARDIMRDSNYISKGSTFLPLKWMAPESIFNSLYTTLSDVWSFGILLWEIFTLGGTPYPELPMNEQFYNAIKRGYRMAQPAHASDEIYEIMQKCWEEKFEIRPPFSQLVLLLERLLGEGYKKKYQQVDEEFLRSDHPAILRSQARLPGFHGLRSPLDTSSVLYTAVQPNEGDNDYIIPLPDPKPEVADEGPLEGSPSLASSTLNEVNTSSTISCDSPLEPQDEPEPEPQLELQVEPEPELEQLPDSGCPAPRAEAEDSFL
Description: as §1
PDGF-Induced BrdU Incorporation Assay
(8) 3T3 cell line genetically engineered to express human PDGF-R.
(1) Cells are seeded at 8000 cells/well in DMEM, 10% CS, 2 mM Gln in a 96 well plate. Cells are incubated overnight at 37° C. in 5% CO2.
as §2
as §3, with “(PDGF, 3.8” for “(EGF, 2”, “0.1% BSA)” for “0.1%/BSA)”, “(PDGF)” for “(EGF)”
as §4, §5

[4] = tested on: A431; assay: A431 growth; assay type: cell-based; conditions: Homo sapiens, A-431; Table 7; A431 cells
[5] = tested on: SKOV3; assay: SKOV3 growth; assay type: cell-based; conditions: Homo sapiens, SK-OV-3; Table 7; SKOV3 cells
[6] = target: T2, Her2; assay: HER-2 ELISA: EGF receptor-HER2 chimeric receptor assay in whole cells (HER2 kinase); assay type: cell-based; conditions: Table 7; NIH3T3 cells with EGFR/HER2 chimeric receptor, phosphotyrosine ELISA
Description: Assay 1: EGF Receptor-HER2 Chimeric Receptor Assay In Whole Cells.
HER2 kinase activity in whole EGFR-NIH3T3 cells was measured as described below:
1. An NIH3T3 cell line overexpressing a chimeric receptor containing the EGFR extracellular domain and intracellular HER2 kinase domain can be used for this assay.
3. Resuspend cells in seeding medium (DMEM, 0.5% bovine serum), and count the cells using trypan blue. Viability above 90% is acceptable. Seed cells in DMEM medium (0.5% bovine serum) at a density of 10,000 cells per well, 100 μL per well, in a 96 well microtiter plate. Incubate seeded cells in 5% CO2 at 37° C. for about 40 hours.
1. Check seeded cells for contamination using an inverted microscope. Dilute drug stock (10 mg/mL in DMSO) 1:10 in DMEM medium, then transfer 5 μL to a TBST well for a final drug dilution of 1:200 and a final DMSO concentration of 1%. Control wells receive DMSO alone. Incubate in 5% CO2 at 37° C. for two hours.
2. Prepare EGF ligand: dilute stock EGF in DMEM so that upon transfer of 10 μL dilute EGF (1:12 dilution), 100 nM final concentration is attained.
4. After 120 minutes incubation with drug, add prepared […] ligand to cells, 10 μL per well, to a final concentration of 100 nM. Control wells receive DMEM alone. Incubate, shaking, at room temperature, for 5 minutes.
5. Remove drug, EGF, and DMEM. Wash cells twice with PBS. Transfer HNTG* to cells, 100 μL per well. Place on ice for 5 minutes. Meanwhile, remove blocking buffer from other ELISA plate and wash with TBST as described above.
6. With a pipette tip securely fitted to a micropipettor, scrape cells from plate and homogenize cell material by repeatedly aspirating and dispensing the HNTG* lysis buffer. Transfer lysate to a coated, blocked, and washed ELISA plate. Incubate shaking at room temperature for one hour.
7. Remove lysate and wash 4 times with TBST. Transfer freshly diluted anti-Ptyr antibody to ELISA plate at 100 μL per well. Incubate shaking at room temperature for 30 minutes in the presence of the anti-Ptyr antiserum (1:3000 dilution in TBST).
8. Remove the anti-Ptyr antibody and wash 4 times with TBST. Transfer the freshly diluted TAGO anti-rabbit IgG antibody to the ELISA plate at 100 μL per well. Incubate shaking at room temperature for 30 minutes (anti-rabbit IgG antibody: 1:3000 dilution in TBST).
9. Remove TAGO detection antibody and wash 4 times with TBST. Transfer freshly prepared ABTS/H2O2 solution to ELISA plate, 100 μL per well. Incubate shaking at room temperature for 20 minutes. (ABTS/H2O2 solution: 1.0 μL 30% H2O2 in 10 mL ABTS stock).
10. Stop reaction by adding 50 μL 5N H2SO4 (optional), and determine O.D. at 410 nm.
11. The maximal phosphotyrosine signal is determined by subtracting the value of the negative controls from the positive controls. The percent inhibition of phosphotyrosine content for extract-containing wells is then calculated, after subtraction of the negative controls.

[7] = target: T1, EGFR; assay: Biochemical EGFR assay (ELISA); parameters: A431 cell lysate; endogenous in cells; host or cells: A431; conditions: Table 7, in vitro kinase activity, read-out: EGFr biochem IC50
Description: This assay measures the in vitro kinase activity of EGFR using ELISA.
1. Coat Coming 96 well ELISA plates with 0.5 μg SUMOl in 100 μL PBS per well, store overnight at 4° C.
5. Dilute lysate in PBS (7 μg lysate/100 μL PBS).
6. Add 100 μL of diluted lysate to each well. Shake at room temperature for 60 min.
8. Add 120 μL TBS to ELISA plate containing captured EGFR.
9. Dilute test compound 1:10 in TBS in 96-well polypropylene plates (ie. 10 μL compound+90 μL TBS).
10. Add 13.5 μL diluted test compound to ELISA plate.
13. After 5 minutes, stop reaction by adding 16.5 μL of 200 mM EDTA (pH 8.0) to each well, shaking continuously. After the EDTA has been added, shake for 1 mm.
15. Add 100 μL anti-phosphotyrosine (1:3000 dilution in TBST) per well. Incubate 30-45 min. at room temperature, with shaking.
17. Add 100 μL Biosource Goat anti-rabbit IgG peroxidase conjugate (1:2000 dilution in TBST) to each well. Incubate 30 min. at room temperature, with shaking.
19. Add 100 μL of ABTS/H2O2 solution to each well.
22. Read assay on Dynatech MR7000 ELISA reader. Test Filter: 410 nM Reference Filter: 630 Nm.

T1 sequence (P00533 25-1210): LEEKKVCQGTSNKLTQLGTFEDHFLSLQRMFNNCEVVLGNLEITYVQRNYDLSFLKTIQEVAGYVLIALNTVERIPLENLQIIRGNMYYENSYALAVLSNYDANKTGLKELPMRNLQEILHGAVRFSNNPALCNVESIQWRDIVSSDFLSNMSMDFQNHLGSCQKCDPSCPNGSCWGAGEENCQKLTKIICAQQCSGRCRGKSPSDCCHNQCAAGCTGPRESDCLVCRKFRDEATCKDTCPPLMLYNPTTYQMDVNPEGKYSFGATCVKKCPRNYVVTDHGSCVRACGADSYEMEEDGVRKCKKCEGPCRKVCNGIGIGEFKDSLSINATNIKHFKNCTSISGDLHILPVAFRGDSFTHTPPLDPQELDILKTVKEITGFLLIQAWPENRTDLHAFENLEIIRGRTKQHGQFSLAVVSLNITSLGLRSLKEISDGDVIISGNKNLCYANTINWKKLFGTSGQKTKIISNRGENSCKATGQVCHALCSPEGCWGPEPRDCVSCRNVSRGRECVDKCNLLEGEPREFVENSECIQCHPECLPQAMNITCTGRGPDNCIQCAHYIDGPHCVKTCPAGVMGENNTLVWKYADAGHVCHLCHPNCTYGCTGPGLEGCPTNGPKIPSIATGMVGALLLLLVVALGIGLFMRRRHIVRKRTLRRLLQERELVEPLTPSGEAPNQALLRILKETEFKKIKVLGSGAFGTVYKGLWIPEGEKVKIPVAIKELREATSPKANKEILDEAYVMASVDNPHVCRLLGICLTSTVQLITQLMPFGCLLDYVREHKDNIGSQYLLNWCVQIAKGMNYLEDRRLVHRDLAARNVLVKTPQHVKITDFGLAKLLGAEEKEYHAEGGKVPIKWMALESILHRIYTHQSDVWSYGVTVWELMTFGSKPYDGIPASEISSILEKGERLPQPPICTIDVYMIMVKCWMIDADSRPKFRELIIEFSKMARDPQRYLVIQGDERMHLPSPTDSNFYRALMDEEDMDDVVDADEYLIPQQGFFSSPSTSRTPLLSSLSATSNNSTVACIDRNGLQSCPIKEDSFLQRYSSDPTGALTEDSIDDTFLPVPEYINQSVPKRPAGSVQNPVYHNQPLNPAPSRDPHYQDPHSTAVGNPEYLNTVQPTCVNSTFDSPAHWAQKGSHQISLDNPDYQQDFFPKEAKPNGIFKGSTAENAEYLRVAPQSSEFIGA

SMILES	pIC50 [1]	pIC50 [2]	pIC50 [3]	pIC50 [4]	pIC50 [5]	pIC50 [6]	pIC50 [7]
O=C1Cc2c(CCOC(=S)Nc3ccccc3)cccc2N1 [IN-010, Phenyl-thiocarbamic acid O-[2-(2-oxo-2,3-dihydro-1H-indol-4-yl)-ethyl]ester]	–	–	–	< 4.60	< 4.60	< 4.00	< 4.00
O=C1Cc2c(CCOC(=O)Nc3ccccc3)cccc2N1 [IN-011, Phenyl-carbamic acid 2-(2-oxo-2,3-dihydro-1H-indol-4-yl)-ethyl ester]	–	–	–	< 4.30	< 4.30	< 4.00	< 4.00
CC(C)(C)NC(=O)OCCc1cccc2c1CC(=O)N2 [IN-012, tert-Butyl-carbamic acid 2-(2-oxo-2,3-dihydro-1H-indol-4-yl)-ethyl ester]	–	–	–	< 4.30	< 4.30	< 4.00	< 4.00
O=C1Cc2c(CCOC(=O)NC3CCCCC3)cccc2N1 [IN-013, Cyclohexyl-carbamic acid 2-(2-oxo-2,3-dihydro-1H-indol-4-yl)-ethyl ester]	–	–	–	< 4.30	< 4.30	< 4.00	< 4.00
O=C1Cc2c(CCOC(=O)NS(=O)(=O)c3ccccc3)cccc2N1 [IN-014, Benzene sulfonyl-carbamic acid 2-(2-oxo-2,3-dihydro-1H-indol-4-yl)-ethyl ester]	–	–	–	< 4.30	< 4.30	< 4.00	< 4.00
O=C1Cc2c(CCOC(=O)Nc3ccccc3-c3ccccc3)cccc2N1 [IN-015, Biphenyl-2-yl-carbamic acid 2-(2-oxo-2,3-dihydro-1H-indol-4-yl)-ethyl ester]	–	–	–	4.68	4.69	< 4.00	< 4.00
CCNC(=O)OCCc1cccc2c1CC(=O)N2 [IN-016, Ethyl-carbamic acid 2-(2-oxo-2,3-dihydro-1H-indol-4-yl)-ethyl ester]	–	–	–	< 4.30	< 4.30	< 4.00	< 4.00
CC(C)c1ccc(OCCc2cccc3c2CC(=O)N3)cc1 [IN-020, 4-[2-(4-Isopropyl-phenoxy)-ethyl]-1,3-dihydro-indol-2-one]	–	–	–	4.82	< 4.30	< 4.00	< 4.00

Next, values leading:

pIC50 [1]	pIC50 [2]	pIC50 [3]	pIC50 [4]	pIC50 [5]	pIC50 [6]	pIC50 [7]	SMILES
< 4.30	4.33	6.11	–	–	–	–	COc1ccc(/C(=C2/C(=O)Nc3ccccc32)c2[nH]c(C)cc2C)cc1 [DAI-I, 3-[(3,5-Dimethyl-1H-pyrrol-2-yl)-(4-methoxy-phenyl)-methylene]-1,3-dihydro-indol-2-one]
4.42	4.52	6.59	–	–	–	–	COc1ccc(/C(=C2/C(=O)Nc3ccccc32)c2[nH]c(C)cc2C)cc1OC [DAI-II, 3-[(3,4-dimethoxy-phenyl)-(3,5-dimethyl-1H-pyrrol-2-yl)-methylene]-1,3-dihydro-indol-2-one]
–	–	–	–	< 4.30	< 4.00	< 4.00	COc1ccc(OCCc2cccc3c2CC(=O)N3)cc1 [IN-017, 4-[2-(4-Methoxy-phenoxy)-ethyl]-1,3-dihydro-indol-2-one]
